Experimental data reported in patent US8734777B2, “Heterocyclic antiviral compounds” (priority 2010, dated 2014).

Assays:
[1] = molecular target: T1, HCV polymerase (NS5B570n-Con1) (Hepatitis C virus genotype 1b, UniProt Q9WMX2); assay: HCV NS5B RNA polymerase activity assay; format: biochemical, HCV Con1 strain
T1 construct: contains a 21 amino acid deletion at the C-terminus relative to the full-length HCV polymerase; 6-histidine (N); made in house; host or cells: E. coli strain BL21(DE) pLysS, plasmid pET17b
Protocol: The enzymatic activity of HCV polymerase (NS5B570n-Con1) was measured as the incorporation of radiolabeled nucleotide monophosphates into acid insoluble RNA products. Unincorporated radiolabeled substrate was removed by filtration and scintillant was added to the washed and dried filter plate containing radiolabeled RNA product. The amount of RNA product generated by NS5B570-Con1 at the end of the reaction was directly proportional to the amount of light emitted by the scintillant.
The N-terminal 6-histidine tagged HCV polymerase, derived from HCV Con1 strain, genotype 1b (NS5B570n-Con1) contains a 21 amino acid deletion at the C-terminus relative to the full-length HCV polymerase and was purified from E. coli strain BL21(DE) pLysS. The construct, containing the coding sequence of HCV NS5B Con1 (GenBank accession number AJ242654) was inserted into the plasmid construct pET17b, downstream of a T7 promoter expression cassette and transformed into E. coli. A single colony was grown overnight as a starter culture and later used inoculate 10 L of LB media supplemented with 100 μg/mL ampicillin at 37° C. Protein expression was induced by the addition of 0.25 mM isopropyl-β-D-thiogalactopyranoside (IPTG) when optical density at […] of the culture was between 0.6 and 0.8 and cells were harvested after 16 to 18 h at 30° C. NS5B570n-Con1 was purified to homogeneity using a three-step protocol including subsequent column chromatography on Ni-NTA, SP-Sepharose HP and Superdex 75 resins. […]
The amount of light emitted from the scintillant was converted to counts per minute (CPM) on a Topcount® plate reader (Perkin-Elmer, Energy Range: Low, Efficiency Mode: Normal, Count Time: 1 min, Background Subtract: none, Cross talk reduction: Off).
Data was analyzed in Excel® (Microsoft®) and ActivityBase® (Idbs®). […] All data was expressed as a percentage of the positive control. […]

[2] = tested on: HCV replicon cells (2209-23), genotype 1b replicon; assay: HCV replicon assay (Renilla luciferase reporter); format: cell-based, HCV genotype 1b; details: Hepatitis C virus, 72 h; 2209-23 cells, three days incubation, luciferase activity
[3] = in vitro; details: human

| Structure (SMILES) | IC50 [1] | IC50 [2] | melting point | CC50 at 3 days [3] |
| --- | --- | --- | --- | --- |
| COc1c(C(C)(C)C)cc(-c2ccc[nH]c2=O)c2ccc(-c3ccc(NS(C)(=O)=O)cc3)nc12 [Compound I-1, N-{4-[7-tert-Butyl-8-methoxy-5-(2-oxo-1,2-dihydro-pyridin-3-yl)-quinolin-2-yl]-phenyl}-methanesulfonamide] | 0.6 nM |  |  |  |
| COc1c(C(C)(C)C)cc(-c2ccc(C)[nH]c2=O)c2ccc(-c3ccc(NS(C)(=O)=O)cc3)nc12 [Compound I-2, N-{4-[7-tert-Butyl-8-methoxy-5-(6-methyl-2-oxo-1,2-dihydro-pyridin-3-yl)-quinolin-2-yl]-phenyl}-methanesulfonamide] | 0.4 nM |  |  |  |
| COc1c(C(C)(C)C)cc(-n2ccc(=O)[nH]c2=O)c2ccc(-c3ccc(NS(C)(=O)=O)cc3)nc12 [Compound I-3, N-{4-[7-tert-Butyl-5-(2,4-dioxo-3,4-dihydro-2H-pyrimidin-1-yl)-8-methoxy-quinolin-2-yl]-phenyl}-methanesulfonamide] | 0.2 nM | 17 nM | 275 to 278 °C | 44 µM |
